From patent US20230329236A1, “HERBICIDAL PYRIMIDINE DERIVATIVES” (MoA Technology Limited, priority 2020, published 2023)

Assays:
[1] = system: Lolium multiflorum (LOLMU); assay: Post-emergence glasshouse test, visual injury, LOLMU; format: in vivo; settings: 336 h, 14±1 days post application
In short: (§1)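 Seeds sown in sandy loam soil; seedlings grown to BBCH 12-14, then sprayed with active ingredient (g/ha) in acetone/water 50:50 plus 0.5% Tween 20; plants kept in glasshouse, watered as needed; damage assessed after 14±1 days as % of untreated.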

[2] = system: Echinochloa crus-gaffi (ECHCG); assay: Post-emergence glasshouse test, visual injury, ECHCG; format: in vivo, Echinochloa crus-galli; settings: 336 h, 14±1 days post application
In short: as §1

Veronica persica (VERPE) = assay: Post-emergence glasshouse test, visual injury, VERPE; format: in vivo; settings: 336 h, 14±1 days post application
In short: as §1

[3] = system: Amaranthus retroflexus (AMARE); assay: Post-emergence glasshouse test, visual injury, AMARE; format: in vivo; settings: 336 h, 14±1 days post application
In short: as §1

Glycine max (GLXMA) = assay: Post-emergence glasshouse test, visual injury, GLXMA; format: in vivo; settings: Table 4, post-emergence, 14±1 days post application
Method: (§2) Seeds of a variety of test species are grown in a sandy loam soil mixture, Lolium multiflorum (LOLMU), Amaranthus retroflexus (AMARE), Echinochloa crus-gaffi (ECHCG), Veronica persica (VERPE), Glycine max (GLXMA), Oryza sativa (ORYSA), Zea mays (ZEAMX), spring wheat (TRZAS), Ipomoea hederacea (IPOHE), Ipomoea purpurea (PHBPU), Stellaria media (STEME), Solanum nigrum (SOLNI), Digitaria sanguinalis (DIGSA), Setaria italica (SETIT), Alopecurus myosuroides (ALOMY) and Avena fatua (AVEFA).
(§3) After sowing, at growth stage BBCH 12-14 (post-emergence), the plants are sprayed with an aqueous spray solution derived from the formulation of the technical active ingredient in acetone/water (50:50) solution containing 0.5% Tween 20 (polyoxyethlyene sorbitan monolaureate, CAS RN 9005-64-5). The test compounds are applied at the required concentration of active ingredient in g/ha. The test plants are then grown in a glasshouse under controlled environmental conditions and watered regularly as required. After 14±1 days post application (for post-emergence test), the test is evaluated by assessing the percentage damage caused to the plants in comparison with the untreated plots. The biological activities for post-emergence testing are shown below (Table 3 and Table 4) as a % visual injury.

Oryza sativa (ORYSA) = assay: Post-emergence glasshouse test, visual injury, ORYSA; format: in vivo; settings: Table 4, post-emergence, 14±1 days post application
Method: as §2, §3

Zea mays (ZEAMX) = assay: Post-emergence glasshouse test, visual injury, ZEAMX; format: in vivo; settings: Table 4, post-emergence, 14±1 days post application
Method: as §2, §3

spring wheat (TRZAS) = assay: Post-emergence glasshouse test, visual injury, TRZAS; format: in vivo; settings: Table 4, post-emergence, 14±1 days post application
Method: as §2, §3

[4] = system: Ipomoea hederacea (IPOHE); assay: Post-emergence glasshouse test, visual injury, IPOHE; format: in vivo; settings: Table 4, post-emergence, 14±1 days post application
Method: as §2, §3

Ipomoea purpurea (PHBPU) = assay: Post-emergence glasshouse test, visual injury, PHBPU; format: in vivo; settings: Table 4, post-emergence, 14±1 days post application
Method: as §2, §3

Stellaria media (STEME) = assay: Post-emergence glasshouse test, visual injury, STEME; format: in vivo; settings: Table 4, post-emergence, 14±1 days post application
Method: as §2, §3

Solanum nigrum (SOLNI) = assay: Post-emergence glasshouse test, visual injury, SOLNI; format: in vivo; settings: Table 4, post-emergence, 14±1 days post application
Method: as §2, §3

[5] = system: Digitaria sanguinalis (DIGSA); assay: Post-emergence glasshouse test, visual injury, DIGSA; format: in vivo; settings: Table 4, post-emergence, 14±1 days post application
Method: as §2, §3

Setaria italica (SETIT) = assay: Post-emergence glasshouse test, visual injury, SETIT; format: in vivo; settings: Table 4, post-emergence, 14±1 days post application
Method: as §2, §3

[6] = system: Alopecurus myosuroides (ALOMY); assay: Post-emergence glasshouse test, visual injury, ALOMY; format: in vivo; settings: Table 4, post-emergence, 14±1 days post application
Method: as §2, §3

Avena fatua (AVEFA) = assay: Post-emergence glasshouse test, visual injury, AVEFA; format: in vivo; settings: Table 4, post-emergence, 14±1 days post application
Method: as §2, §3

[7] = Table 4, post-emergence, 125 g/ha
[8] = Table 4, post-emergence, 250 g/ha
[9] = Table 4, post-emergence, 1000 g/ha

Cc1cc(-c2cnc(NCc3ccc(F)cc3)nc2C2CC2)on1 [Compound 16]
pest or weed control at 500 g/ha ([1]; Table 3, post-emergence): 0%
pest or weed control at 125 g/ha [1, 7]: 98%
pest or weed control at 250 g/ha [1, 8]: 90%
pest or weed control at 500 g/ha ([1]; Table 4, post-emergence): 100%
pest or weed control at 1000 g/ha [1, 9]: 95%
pest or weed control at 500 g/ha ([2]; Table 3, post-emergence): 40%
pest or weed control at 125 g/ha [2, 7]: 80%
pest or weed control at 250 g/ha [2, 8]: 70%
pest or weed control at 500 g/ha ([2]; Table 4, post-emergence): 60%
pest or weed control at 1000 g/ha [2, 9]: 90%
pest or weed control at 500 g/ha (Veronica persica (VERPE); Table 3, post-emergence): 95%
pest or weed control at 125 g/ha (Veronica persica (VERPE); [7]): 100%
pest or weed control at 250 g/ha (Veronica persica (VERPE); [8]): 100%
pest or weed control at 500 g/ha (Veronica persica (VERPE); Table 4, post-emergence): 100%
pest or weed control at 1000 g/ha (Veronica persica (VERPE); [9]): 100%
pest or weed control at 500 g/ha ([3]; Table 3, post-emergence): 95%
pest or weed control at 125 g/ha [3, 7]: 100%
pest or weed control at 250 g/ha [3, 8]: 100%
pest or weed control at 500 g/ha ([3]; Table 4, post-emergence): 100%
pest or weed control at 1000 g/ha [3, 9]: 100%
GLXMA % visual injury (Glycine max (GLXMA); 125 g/ha): 50%
GLXMA % visual injury (Glycine max (GLXMA); 250 g/ha): 40%
GLXMA % visual injury (Glycine max (GLXMA); 500 g/ha): 70%
GLXMA % visual injury (Glycine max (GLXMA); 1000 g/ha): 50%
ORYSA % visual injury (Oryza sativa (ORYSA); 125 g/ha): 60%
ORYSA % visual injury (Oryza sativa (ORYSA); 250 g/ha): 90%
ORYSA % visual injury (Oryza sativa (ORYSA); 500 g/ha): 70%
ORYSA % visual injury (Oryza sativa (ORYSA); 1000 g/ha): 60%
ZEAMX % visual injury (Zea mays (ZEAMX); 125 g/ha): 60%
ZEAMX % visual injury (Zea mays (ZEAMX); 250 g/ha): 60%
ZEAMX % visual injury (Zea mays (ZEAMX); 500 g/ha): 50%
ZEAMX % visual injury (Zea mays (ZEAMX); 1000 g/ha): 70%
TRZAS % visual injury (spring wheat (TRZAS); 125 g/ha): 30%
TRZAS % visual injury (spring wheat (TRZAS); 250 g/ha): 30%
TRZAS % visual injury (spring wheat (TRZAS); 500 g/ha): 50%
TRZAS % visual injury (spring wheat (TRZAS); 1000 g/ha): 50%
IPOHE % visual injury ([4]; 125 g/ha): 40%
IPOHE % visual injury ([4]; 250 g/ha): 80%
IPOHE % visual injury ([4]; 500 g/ha): 100%
IPOHE % visual injury ([4]; 1000 g/ha): 100%
PHBPU % visual injury (Ipomoea purpurea (PHBPU); 125 g/ha): 80%
PHBPU % visual injury (Ipomoea purpurea (PHBPU); 250 g/ha): 95%
PHBPU % visual injury (Ipomoea purpurea (PHBPU); 500 g/ha): 90%
PHBPU % visual injury (Ipomoea purpurea (PHBPU); 1000 g/ha): 90%
STEME % visual injury (Stellaria media (STEME); 125 g/ha): 100%
STEME % visual injury (Stellaria media (STEME); 250 g/ha): 100%
STEME % visual injury (Stellaria media (STEME); 500 g/ha): 100%
STEME % visual injury (Stellaria media (STEME); 1000 g/ha): 100%
SOLNI % visual injury (Solanum nigrum (SOLNI); 125 g/ha): 98%
SOLNI % visual injury (Solanum nigrum (SOLNI); 250 g/ha): 99%
SOLNI % visual injury (Solanum nigrum (SOLNI); 500 g/ha): 100%
SOLNI % visual injury (Solanum nigrum (SOLNI); 1000 g/ha): 100%
DIGSA % visual injury ([5]; 125 g/ha): 90%
DIGSA % visual injury ([5]; 250 g/ha): 80%
DIGSA % visual injury ([5]; 500 g/ha): 90%
DIGSA % visual injury ([5]; 1000 g/ha): 90%
SETIT % visual injury (Setaria italica (SETIT); 125 g/ha): 0%
SETIT % visual injury (Setaria italica (SETIT); 250 g/ha): 30%
SETIT % visual injury (Setaria italica (SETIT); 500 g/ha): 30%
SETIT % visual injury (Setaria italica (SETIT); 1000 g/ha): 60%
ALOMY % visual injury ([6]; 125 g/ha): 70%
ALOMY % visual injury ([6]; 250 g/ha): 80%
ALOMY % visual injury ([6]; 500 g/ha): 80%
ALOMY % visual injury ([6]; 1000 g/ha): 80%
AVEFA % visual injury (Avena fatua (AVEFA); 125 g/ha): 50%
AVEFA % visual injury (Avena fatua (AVEFA); 250 g/ha): 60%
AVEFA % visual injury (Avena fatua (AVEFA); 500 g/ha): 60%
AVEFA % visual injury (Avena fatua (AVEFA); 1000 g/ha): 60%
